# Columns and labels:
# [1] = test system: A549 cells; assay: Anchorage Independence/Soft Agar Assay, A549; type: cell-based, human; parameters: PERCENTAGE SURVIVAL RELATIVE TO MS, A549, n = 2: tested at 2 µg; details: soft agar
# Protocol: (§1) The Anchorage Independence/Soft Agar Assay allows assessment of the influence of modulation of gene expression on clonal tumouroid formation by observing and quantifying tumouroid morphology and colony number over an extended period of logarithmic growth thereby ascertaining any cell death is induced.
# (§2) Cells are seeded into a 6-well plate and allowed to adhere overnight at 37° C. in a humidified atmosphere containing 5% CO2 in air. Cells are next transfected with siRNA Oligomers, at a concentration of 2 μg, against the genes of interest. Transfections continued for 4 hrs after which the transfection solution is removed and cells are refed with fresh medium and allowed incubate overnight. Transfected cells are next harvested for seeding into soft agar assay as described below. Cells are seeded at 5×10^4 cells per well of a 6 well plate and incubated over a 12/14-Day period whilst proliferating in a 0.05% Agar/Medium cell suspension at 37° C. in a humidified atmosphere containing 5% CO2 in air. Colonies formed are subsequently stained with Crystal Violet, their morphology is assessed and colonies formed are enumerated at a 4× magnification.
# (§3) The cytotoxic effect of each gene is determined by a reduction in colony number compared to our MS control, but any influence on the morphology of the colony is also noted.
# (§4) Examples of genes with a cytotoxic effect on knockdown as detected by the soft agar assay are outlined in Table 14. Table 14 gives the percentage survival of the indicated cell lines post transfection with siRNA oligomers to target genes relative to that of the missense in an anchorage independent assay. As an internal reference, the known survival gene Survivin was also targeted by siRNA. This table illustrates the magnitude of cytotoxicity induced by the knockdown of each target gene compared to the MS control i.e. the number of colonies formed are stained with Crystal violet and enumerated visually as discussed.
# [2] = test system: HCT15 cells; assay: Anchorage Independence/Soft Agar Assay, HCT15; type: cell-based, human; parameters: PERCENTAGE SURVIVAL RELATIVE TO MS, HCT15, n = 2: tested at 2 µg; PERCENTAGE SURVIVAL RELATIVE TO MS, HCT15, n = 1: tested at 2 µg siRNA; details: soft agar
# Protocol: as §1, §2, §3, §4
# [3] = test system: MCF7 cells; assay: Anchorage Independence/Soft Agar Assay, MCF7; type: cell-based, human; parameters: PERCENTAGE SURVIVAL RELATIVE TO MS, MCF7, n = 2: tested at 2 µg; details: soft agar
# Protocol: as §1, §2, §3, §4
# [4] = test system: U251 cells; assay: Anchorage Independence/Soft Agar Assay, U251; type: cell-based, human; details: soft agar, experiment n = 1
# Protocol: as §1
# as §2, with “Cells are seeded at 5×10^4 cells per well of a 6 well plate and incubated over a 12/14-Day period whilst proliferating in a 0.05% Agar/Medium cell suspension at 37° C. in a humidified atmosphere containing 5% CO2 in air.” left out
# as §3
# (§5) Examples of genes with a cytotoxic effect on knockdown as detected by the soft agar assay are outlined in Table 14. […]
# [5] = test system: PC3 cells; assay: Anchorage Independence/Soft Agar Assay, PC3; type: cell-based, human; details: soft agar, experiment n = 1
# Protocol: as §1
# as §2, with “Cells are seeded at 5×10^4 cells per well of a 6 well plate and incubated over a 12/14-Day period whilst proliferating in a 0.05% Agar/Medium cell suspension at 37° C. in a humidified atmosphere containing 5% CO2 in air.” left out
# as §3, §5
# [6] = test system: cancer cell lines; assay: Anchorage Independence/Soft Agar Assay, summary over the cell lines; type: cell-based, human; details: 14-day anchorage independent assay, over the cell lines examined
# Protocol: as §1, §2, §3
# As an internal reference, the known survival gene ‘Survivin’ was also targeted by siRNA.
# [7] = test system: PC3 cells; assay: Cell Migration Assay (Chemicon ECM550, Boyden Chamber); type: cell-based, human; details: 48 hours post siRNA transfection, 24-hour migration, compared to missense and UPA controls
# Protocol: Cells are seeded into a 6-well plate and allowed to adhere overnight at 37° C. in a humidified atmosphere containing 5% CO2 in air. Cells are next transfected with siRNA oligonucleotides, at a concentration of 2 μg/ml, against the genes of interest, as described in detail in Example 5. Transfections are continued for 4 hrs after which the transfection solution is removed and cells are refed with fresh medium and allowed incubate overnight. Transfected cells are next harvested for seeding into migration assay as described below.
# The Chemicon Cell Migration Assay (ECM550) is used to quantify the number of PC3 cells that successfully migrate across a Boyden Chamber towards a chemoattractant over a 24-hour incubation period. Assessment of PC3 cell migration is performed routinely 48 hours post siRNA Transfection. The effect of reducing the expression of genes of interest is compared to that of a missense control oligomer and to the influence of UPA knockdown, which is reported in the literature to decrease PC3 cell migration. The Migration Assay is performed as per manufacturers inductions. Results are illustrated in FIGS. 39 to 41.
# Cells were plated and transfected with the indicated siRNA as described above. Migration of PC3 cells was tracked using a fluorescent dye. Consequently increases in fluorescent units correlates positively with increased migration.
# [8] = test system: OAS1 and GBP1 mRNA in HCT15, A549, SKOV3, DU145, PC3, A498, U251 cells; assay: Interferon response genes mRNA by QPCR after siRNA transfection; type: cell-based, human; details: compared to untransfected cells
# From the text: Inhibiting gene expression using siRNA has been associated with non-specific induction of interferon from target cells (Sledz C A et al. Nat Cell Biol. September 2003; 5(9): 834-9. 2003). Since induction of interferon may possibly affect biological assays, we control for the effect of our siRNA oligonucleotides on inducing interferon. This is examined by quantitating message RNA levels for two interferon responsive genes, namely OAS1, and GBP1, both before and after siRNA transfection.
# QPCR Primers, designed by MWG Biotech as described previously, are as follows.
# The levels of expression of OAS1 and GBP1 in siRNA-transfected cells are expressed as a percentage of that in untransfected control cells.
# [9] = test system: ELAV-1; assay: Validation of missense control siRNA on ELAV-1 expression; type: cell-based; details: missense control with 4 base pair mismatch substitutions
# From the text: The missense control outlined above is designed by introducing 4 base pair mismatch substitutions into the siRNA oligo sequence for ELAV-1 (Accession number xm—008947; gi 1475941).
# [10] = test system: human primary neutrophils; assay: Neutrophil apoptosis by sub G1 analysis (DNA fragmentation); type: cell-based; details: neutrophils cultured overnight with GM-CSF (65% without)
# Protocol: Neutrophils are isolated from the blood as described in WO 02/04657 and resuspended at a concentration of 2×10^6/ml. Five hundred microlitres are pipetted into wells of a 24 well plate and incubated in the presence or absence of survival factors.
# After this incubation, the neutrophils are carefully resuspended by gentle agitation and the total contents of the well are placed into an eppendorf and centrifuged@2800 rpm for 2 min@RT in a minifuge. The cell pellet is carefully resuspended in 300 μl of ice cold hypotonic fluorochrome solution (50 μg/ml Propidium Iodide, 0.1% Sodium Citrate and 0.1% Triton X-100) and placed in a fridge for 24 h@4° C.
# Prepared samples are analysed with a FacsCalibre flow cytometer (Becton Dickinson) using double discrimination to ensure single cell suspension with Log Forward and Side Scatter Parameter acquisition.
# Neutrophils are seeded at 2×10^6/ml in a 24 well plate in full culture medium (1 ml/well). A PI3K inhibitor (Ly294002) is added to the neutrophils to a final concentration of 20 μM prior to the addition of GM-CSF (50 units/ml). Control wells received either no GM-CSF or F GM-CSF (50 units/ml) in the absence of inhibitor. Neutrophils are cultured for 18 h at 37° C. prior to harvest and prepared for sub G1 analysis, as previously described.
# Neutrophils are seeded at 2×10^6/ml in a 24 well plate in full culture medium (1 ml/well). An AKT inhibitor ([1L-6-Hydroxymethyl-chiro-inositol 2-O-methyl-3-O-octadecylcarbonate] (Calbiochem)) is added to the neutrophils to a final concentration of 20 μM and incubated for 2 h prior to the addition of GM-CSF (50 units/ml). Control wells receive either no GM-CSF or GM-CSF (50 units/ml) in the absence of inhibitor. Neutrophils are cultured for 18 h at 37° C. prior to harvest and prepared for sub G1 analysis, as previously described.
# [11] = test system: TF1 cells; assay: TF1 apoptosis by light scatter (FSC/SSC, live gate) analysis; type: cell-based, human; details: TF1, 48 h, with GM-CSF 2 ng/ml (35% upon factor withdrawal)
# Protocol: Light Scatter Analysis takes advantage of the fact that by using the laser beam of a flow cytometer one can determine the size (Forward Scatter) and granularity (Side Scatter) of a cell. The morphological changes associated with apoptosis, such as decreased size (shrinkage) and granularity affect these parameters. As a consequence, cells undergoing apoptosis will move to the left and slightly down, from the parameters of a healthy population.
# TF1 cells are plated into 24 well plates (2×10^5/ml) and are cultured for 48 h in the presence or absence of GM-CSF (2 ng/ml). Cells are then harvested by centrifugation (1000 rpm, for 10 min) and washed in PBS. […] Forward and Side scatter parameters are assessed using Cell Quest software.
# Culturing TF1 cells in the absence of GM-CSF induces cell death. This death induces morphological changes in the Forward and Side Scatter parameters that can be detected by FacsCalibre analysis. […]
# To assess the antiapoptotic effect of BCL2 over-expression in TF1 cells, cells are transduced with either retrovirus expressing full length BCL2 coding sequence or control vector lacking BCL2. […] The percentage of transduced cells remaining in the live gate (an arbitrary region pre-set on a healthy population of TF1 cells grown in the presence of GM-CSF (2 ng/ml)) is recorded. An index of antiapoptotic activity is calculated by computing the difference in samples ±GMCSF. […]
# [12] = test system: TF1 cells; assay: TF1 apoptosis by sub G1 analysis; type: cell-based, human; details: TF1, 48 h, with GM-CSF (approximately 55% in the absence)
# Protocol: TF1 cells are cultured for 48 h in the presence or absence of GM-CSF (2 ng/ml). Cells are then harvested by centrifugation (1000 rpm, for 10 min) and washed in PBS. The pellet is resuspended in PBS (2×10^5 cells/ml) and 1 ml is then added in a dropwise fashion to ice cold 70% EtoH whilst continuously vortexing. Cells are then permeabilized by incubating at −20° C. for 24 h. To stain DNA, cells are centrifuged and washed in PBS. Cells are resuspended in 500 μl Propidium Iodide Buffer (Propidium iodide (50 μg/ml); RNAse A (50 μg/ml) for 15 min in the dark before flow cytometric analysis using a FacsCalibre (Becton Dickinson). Analysis is performed using Cell Quest software.
substance,measurement,setting,value
"siRNA CNK/PRK: sense UCGUAGUGCUUGUACUUACtt, antisense GUAAGUACAAGCACUACGAtt (sense UCGUAGUGCUUGUACUUACTT; antisense GUAAGUACAAGCACUACGATT; chemistry not given here)","PERCENTAGE SURVIVAL RELATIVE TO MS, A549, n = 1",[1]; experiment n = 1,91%
same,"PERCENTAGE SURVIVAL RELATIVE TO MS, A549, n = 2",[1]; experiment n = 2,39.6%
same,"PERCENTAGE SURVIVAL RELATIVE TO MS, HCT15, n = 1",[2]; experiment n = 1,38.6%
same,"PERCENTAGE SURVIVAL RELATIVE TO MS, HCT15, n = 2",[2]; experiment n = 2,72.3%
same,"PERCENTAGE SURVIVAL RELATIVE TO MS, MCF7, n = 1",[3]; experiment n = 1,98.2%
same,"PERCENTAGE SURVIVAL RELATIVE TO MS, MCF7, n = 2",[3]; experiment n = 2,66.3%
same,"PERCENTAGE SURVIVAL RELATIVE TO MS, U251, n = 1",[4],13.5%
same,"PERCENTAGE SURVIVAL RELATIVE TO MS, PC3, n = 1",[5],10%
same,cell death / apoptosis in the soft agar assay,[6],induced toxicity consistently in the HCT15 cell line
same,migration of PC3 cells,[7],increases the ability of cancer cells to migrate
"siRNA MS: missense control siRNA, sense UGAGAAUGUGAUGCGCGUCTT, antisense GACGCGCAUCACAUUCUCATT (chemistry not given here)",mRNA levels of interferon response genes OAS1 and GBP1,"[8]; HCT15, A549, SKOV3, DU145 and U251 cells",does not increase mRNA levels of interferon response genes
same,mRNA levels of interferon response genes OAS1 and GBP1,[8]; PC3 and A498 cells,Some increase in mRNA of interferon response genes
same,expression of ELAV-1,[9],incapable of decreasing the expression ELAV-1
GM-CSF: a 22 kDa proinflammatory cytokine; survival factor for neutrophils and TF1 cells,percentage of cells with a sub G1 profile,[10],9.7%
same,percentage of cells in the live gate,[11],77%
same,cells with sub-G1 profiles,[12],5%

# — patent US20050019746A1, “Apoptosis-related kinase/GPCRs” (EiRx Therapeutics Limited, priority 2003, published 2005)
